Reference: ChEMBL document CHEMBL1201862, “PubChem BioAssay data set” (2004)
Active and inactive are the calls of the source.

Columns and labels:
[1] = molecular target: T1, Short transient receptor potential channel 4 (Mus musculus, UniProt Q9QUQ5); assay: block of DAMGO-driven TRPC4 calcium entry – cell-based, HEK293 TRPC4/mu-opioid, Fluo-4 calcium, dose response (AID 434942); format: functional;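 note: potency of inhibitors blocking the TRPC4 calcium response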
T1 sequence (Q9QUQ5 whole entry): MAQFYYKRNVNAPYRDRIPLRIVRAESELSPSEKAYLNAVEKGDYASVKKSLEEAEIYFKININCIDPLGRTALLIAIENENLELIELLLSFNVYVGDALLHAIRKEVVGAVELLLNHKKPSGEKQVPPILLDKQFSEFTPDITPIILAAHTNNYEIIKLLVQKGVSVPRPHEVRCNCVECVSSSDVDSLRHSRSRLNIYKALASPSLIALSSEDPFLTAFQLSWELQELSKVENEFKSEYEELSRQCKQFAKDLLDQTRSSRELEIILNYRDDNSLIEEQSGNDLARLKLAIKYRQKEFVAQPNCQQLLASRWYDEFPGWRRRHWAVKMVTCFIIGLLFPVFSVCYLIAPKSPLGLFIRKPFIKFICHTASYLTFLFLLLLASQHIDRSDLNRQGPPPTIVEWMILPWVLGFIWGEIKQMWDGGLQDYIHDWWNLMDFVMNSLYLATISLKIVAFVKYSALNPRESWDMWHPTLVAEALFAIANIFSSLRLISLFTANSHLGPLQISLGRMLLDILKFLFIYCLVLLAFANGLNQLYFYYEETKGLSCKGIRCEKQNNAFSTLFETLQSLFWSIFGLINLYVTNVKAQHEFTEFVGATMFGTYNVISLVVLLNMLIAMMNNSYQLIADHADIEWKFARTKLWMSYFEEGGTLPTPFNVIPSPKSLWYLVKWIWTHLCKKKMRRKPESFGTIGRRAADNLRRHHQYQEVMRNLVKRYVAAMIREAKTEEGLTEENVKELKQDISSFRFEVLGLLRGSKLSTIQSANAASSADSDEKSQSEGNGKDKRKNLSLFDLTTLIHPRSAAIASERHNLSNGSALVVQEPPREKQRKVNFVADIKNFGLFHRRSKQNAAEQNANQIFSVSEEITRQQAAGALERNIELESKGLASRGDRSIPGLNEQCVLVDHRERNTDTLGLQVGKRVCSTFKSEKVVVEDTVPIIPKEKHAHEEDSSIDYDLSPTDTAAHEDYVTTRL

HEK293 [2] = assay: inhibition of NOD1-driven NF-kB reporter – cell-based, luminescence, uHTS, primary screen (AID 1578); format: functional; conditions: Homo sapiens
HEK293 [3] = assay: cells; format: functional, cell-based; conditions: Homo sapiens
HEK293 [4] = assay: cells; format: functional, cell-based; conditions: Homo sapiens; remark: listed apart in the source
HEK293 [5] = assay: NOD2 signaling inhibitors in MDP-stimulated cells, cell-based, uHTS, luminescence (AID 2001); format: functional; conditions: Homo sapiens
[6] = molecular target: T2, Replicative DNA helicase DnaB (Mycobacterium tuberculosis, UniProt P9WMR3); assay: DnaB intein splicing inhibitors, dose response, biochemical, cell-free fluorescence (AID 449749); format: functional
T2 sequence (P9WMR3 whole entry): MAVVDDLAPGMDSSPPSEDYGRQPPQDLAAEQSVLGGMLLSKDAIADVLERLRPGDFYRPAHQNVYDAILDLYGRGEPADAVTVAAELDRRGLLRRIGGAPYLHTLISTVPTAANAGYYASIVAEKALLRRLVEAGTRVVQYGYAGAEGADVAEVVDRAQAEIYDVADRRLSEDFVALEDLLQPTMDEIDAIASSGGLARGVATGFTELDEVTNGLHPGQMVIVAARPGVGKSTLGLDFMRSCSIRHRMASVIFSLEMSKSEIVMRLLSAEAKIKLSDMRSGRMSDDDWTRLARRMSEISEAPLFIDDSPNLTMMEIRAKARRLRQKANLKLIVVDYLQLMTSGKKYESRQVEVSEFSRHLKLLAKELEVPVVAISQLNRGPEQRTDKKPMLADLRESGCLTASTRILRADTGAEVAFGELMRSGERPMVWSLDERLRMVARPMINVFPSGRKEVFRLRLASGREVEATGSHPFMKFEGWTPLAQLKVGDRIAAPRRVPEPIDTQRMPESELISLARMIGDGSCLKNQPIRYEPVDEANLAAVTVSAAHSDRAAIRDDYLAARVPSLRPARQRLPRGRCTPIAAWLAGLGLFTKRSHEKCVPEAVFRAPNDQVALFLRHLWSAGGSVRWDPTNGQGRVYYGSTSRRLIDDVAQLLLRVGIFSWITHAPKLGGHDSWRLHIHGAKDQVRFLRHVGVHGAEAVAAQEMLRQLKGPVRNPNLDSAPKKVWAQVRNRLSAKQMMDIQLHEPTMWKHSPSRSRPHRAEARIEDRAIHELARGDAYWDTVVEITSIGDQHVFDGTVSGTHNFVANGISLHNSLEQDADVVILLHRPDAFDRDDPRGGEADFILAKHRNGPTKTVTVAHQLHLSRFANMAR

Protein RecA = molecular target: T3, Protein RecA (Mycobacterium tuberculosis, UniProt P9WHJ3); assay: Fluorescence Cell-Free Homogeneous Dose Retest to Identify Inhibitors of RecA-Intein Splicing Activity. [Related pubchem assays (depositor defined):AID2097, AID2223, AID489010, AID492950]; format: functional
T3 sequence (P9WHJ3 whole entry): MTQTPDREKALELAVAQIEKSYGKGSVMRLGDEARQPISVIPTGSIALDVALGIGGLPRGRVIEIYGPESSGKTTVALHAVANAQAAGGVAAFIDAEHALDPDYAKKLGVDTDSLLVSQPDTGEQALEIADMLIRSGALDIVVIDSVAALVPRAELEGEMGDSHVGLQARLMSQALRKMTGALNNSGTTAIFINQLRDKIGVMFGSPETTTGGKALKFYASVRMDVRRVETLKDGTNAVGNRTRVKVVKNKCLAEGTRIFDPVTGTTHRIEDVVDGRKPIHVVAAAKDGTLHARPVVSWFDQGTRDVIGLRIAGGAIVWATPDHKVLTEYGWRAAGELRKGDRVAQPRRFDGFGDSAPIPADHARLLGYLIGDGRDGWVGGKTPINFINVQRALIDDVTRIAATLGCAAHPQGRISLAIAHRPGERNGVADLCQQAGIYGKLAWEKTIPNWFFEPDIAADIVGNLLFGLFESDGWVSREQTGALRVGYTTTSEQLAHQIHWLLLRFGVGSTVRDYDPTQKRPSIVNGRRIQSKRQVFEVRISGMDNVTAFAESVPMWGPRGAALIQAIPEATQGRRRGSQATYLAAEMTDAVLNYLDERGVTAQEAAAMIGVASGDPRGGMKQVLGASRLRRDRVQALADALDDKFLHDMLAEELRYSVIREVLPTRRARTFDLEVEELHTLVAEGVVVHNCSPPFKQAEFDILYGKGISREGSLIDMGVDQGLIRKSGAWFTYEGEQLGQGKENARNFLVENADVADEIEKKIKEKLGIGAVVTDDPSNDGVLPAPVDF

INS1 = assay: INS-1E survival protection against cytokine death – cell-based, luminescence, retest, dose response (AID 449756); format: functional; conditions: Rattus norvegicus;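 note: cell death triggered by IL-1 beta plus TNF-alpha plus IFN-gamma mixture; protective hits raise ATP signal compared with cytokine alone wells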
[7] = molecular target: Luciferin 4-monooxygenase (Photinus pyralis, UniProt P08659); assay: inhibition of purified Photinus pyralis luciferase – biochemical, luminescence, dose response (AID 1891)
Sequence of Luciferin 4-monooxygenase (P08659 whole entry): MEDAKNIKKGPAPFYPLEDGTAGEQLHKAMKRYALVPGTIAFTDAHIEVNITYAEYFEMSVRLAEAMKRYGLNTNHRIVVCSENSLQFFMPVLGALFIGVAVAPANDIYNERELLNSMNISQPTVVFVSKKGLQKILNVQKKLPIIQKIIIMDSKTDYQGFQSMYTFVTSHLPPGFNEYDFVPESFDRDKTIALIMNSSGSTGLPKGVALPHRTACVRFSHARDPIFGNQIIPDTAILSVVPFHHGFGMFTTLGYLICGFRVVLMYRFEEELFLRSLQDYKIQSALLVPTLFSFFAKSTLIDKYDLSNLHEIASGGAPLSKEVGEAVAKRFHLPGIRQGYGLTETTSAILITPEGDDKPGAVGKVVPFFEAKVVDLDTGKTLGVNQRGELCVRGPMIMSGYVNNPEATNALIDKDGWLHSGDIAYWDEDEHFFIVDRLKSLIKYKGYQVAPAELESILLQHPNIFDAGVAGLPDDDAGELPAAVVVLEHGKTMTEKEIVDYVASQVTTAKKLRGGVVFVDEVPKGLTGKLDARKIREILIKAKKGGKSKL

[8] = Luminescence Cell-Based Dose Confirmation HTS to Identify Inhibitors of Platelet Dense Granule Release. [Related pubchem assays: 1663 (Primary HTS), 1678 (Summary of Project)]; format: functional
[9] = HEK-293T viability loss after treatment – luminescence, T-cell screen hits, cytotoxicity control for TCR NF-kB inhibitor project, dose response (AID 489026); format: functional, cell-based;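 note: cells exposed to compound about 14 hours before the viability readout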
Protein Wnt-3a = Protein Wnt-3a (Mus musculus, UniProt P27467); assay: antagonism of Wnt3a pathway luciferase reporter – Wnt-LIGHT cells, luminescence, selectivity assay for Gli-SUFU antagonist project, dose response (AID 651570); format: functional; conditions: read-out: IC50_Mean;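 note: Wnt-LIGHT reporter cells stimulated with conditioned medium from Wnt3a-producing cells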
Sequence of Protein Wnt-3a (P27467 whole entry): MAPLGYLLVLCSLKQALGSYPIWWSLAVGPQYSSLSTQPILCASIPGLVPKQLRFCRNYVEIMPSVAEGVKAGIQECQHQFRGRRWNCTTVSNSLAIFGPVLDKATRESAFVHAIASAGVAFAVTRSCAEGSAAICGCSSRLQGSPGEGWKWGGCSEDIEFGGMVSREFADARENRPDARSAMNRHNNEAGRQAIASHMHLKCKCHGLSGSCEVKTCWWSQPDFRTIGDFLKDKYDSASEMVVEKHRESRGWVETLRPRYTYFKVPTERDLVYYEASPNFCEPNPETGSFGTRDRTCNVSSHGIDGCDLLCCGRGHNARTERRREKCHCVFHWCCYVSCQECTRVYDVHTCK

[10] = reduction of Shn3 3'UTR-driven luciferase in osteoblasts – cell-based, Clone20 osteoblasts, firefly luciferase, cherry-picked, dose response (AID 624132); format: functional;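 note: firefly luciferase luminescence from reporter carrying the Shn3 3'UTR in osteoblasts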
[11] = non-specific 3'UTR reporter inhibition in Clone20-Shn3RL – cell-based, Renilla luciferase, cherry-picked, counter-screen for Shn3 inhibitor project, dose response (AID 624133); format: functional
Cytochrome P450 3A4 = Cytochrome P450 3A4 (Homo sapiens, UniProt P08684); conditions: Potency;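 note: confirmatory qHTS run detecting inhibitors and substrates of CYP3A4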
Sequence of Cytochrome P450 3A4 (P08684 whole entry): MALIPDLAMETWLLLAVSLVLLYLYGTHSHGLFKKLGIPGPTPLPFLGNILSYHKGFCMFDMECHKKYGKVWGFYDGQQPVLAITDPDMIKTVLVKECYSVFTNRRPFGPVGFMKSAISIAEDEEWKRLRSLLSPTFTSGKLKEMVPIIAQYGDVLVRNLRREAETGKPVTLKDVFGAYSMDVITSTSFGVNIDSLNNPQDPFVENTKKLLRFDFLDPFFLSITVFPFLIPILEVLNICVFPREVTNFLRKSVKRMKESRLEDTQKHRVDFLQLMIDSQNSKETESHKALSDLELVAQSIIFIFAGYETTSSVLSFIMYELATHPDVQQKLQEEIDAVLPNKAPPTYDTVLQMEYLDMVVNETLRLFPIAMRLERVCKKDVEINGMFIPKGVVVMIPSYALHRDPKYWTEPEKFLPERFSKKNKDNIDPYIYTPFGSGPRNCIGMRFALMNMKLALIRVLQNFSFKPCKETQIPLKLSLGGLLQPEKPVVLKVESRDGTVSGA

[12] = Luminescence Cell-Based Dose Retest to Confirm Inhibitors of Cancer Stem Cells. [Related pubchem assays (depositor defined):AID2717, AID2721]; format: functional; conditions: Homo sapiens

Compound: OCCNCc1cc(Br)ccc1OCc1ccc(F)cc1
- EC50 [1]: 1.88 µM (active)

Compound: O=C(C(Cl)Cl)N1c2ccccc2OCC1c1ccccc1 (stereo unspecified)
- EC50 (HEK293 [2]): 13.8 µM (active)
- IC50 (HEK293 [3]): 16.9 µM (active)
- IC50 (HEK293 [4]): > 20 µM (inactive)
- IC50 (HEK293 [5]): > 20 µM (inactive)
- AC50 [6]: 10 µM (active)
- EC50 (Protein RecA): 1.25 µM (active)
- AC50 (INS1): 8.54 µM (active)

Compound: CCN(CC)Cc1cc(CCNC(=O)c2ccc(Cl)cc2)ccc1O
- EC50 [1]: 4.73 µM (active)

Compound: CCCCC(=O)N(c1ccc(C(=O)O)cc1)c1nc(-c2ccc(Cl)cc2)c(CC)s1
- EC50 [7]: > 112 µM (not active)
- EC50 [8]: > 112 µM (not active)
- EC50 [1]: 10.6 µM (active)

Compound: CC(Sc1n[nH]c2c3ccccc3nc-2n1)C(=O)N(C)C1CCCCC1 (stereo unspecified)
- EC50 (HEK293 [2]): 4.74 µM (active)
- IC50 (HEK293 [3]): 6.41 µM (active)
- IC50 (HEK293 [4]): 12.9 µM (active)
- IC50 (HEK293 [5]): 6.67 µM (active)
- AC50 (INS1): 16.1 µM (active)

Compound: CC(C)(C)OC(=O)NCCCCCc1cn(CC(=O)NCCCCCCCCCCC(=O)N2CCN(C(=O)OC(C)(C)C)CC2)nn1
- IC50 [9]: > 80 µM (inactive)
- IC50 (Protein Wnt-3a): 21.9 µM (inactive)

Compound: Cc1cccc(CCN2C(N(C)C)=NC[C@@H]2CC(C)C)c1
- AC50 [10]: 1.45 µM (active)
- AC50 [11]: 8.04 µM (active)
- IC50 (Protein Wnt-3a): 9.13 µM (active)

Compound: Nc1nc(/C(=C/CC(=O)O)C(=O)NC2C(=O)N3C(C(=O)O)=CCSC23)cs1 (stereo unspecified)
- AC50 (Cytochrome P450 3A4): 31.6 µM (inconclusive)

Compound: Cc1nc(C2CCC3C4CCC5=CC(=O)CC[C@]5(C)C4CC[C@]23C)cs1 (stereo partly specified)
- EC50 (HEK293 [2]): 2.24 µM (active)
- IC50 (HEK293 [3]): 3.42 µM (active)
- IC50 (HEK293 [4]): 9.14 µM (active)
- IC50 (HEK293 [5]): 3.56 µM (active)
- AC50 [12]: 6.32 µM (active)

Compound: NC(=O)c1nsc(C(=O)N(Cc2ccccc2F)C(C(=O)NCC2CCCO2)c2ccc(F)cc2)c1N (stereo unspecified)
- EC50 [1]: 0.473 µM (active)

Compound: COCCNc1nc2c(c(=O)n(C)c(=O)n2C)n1Cc1cccc(C(F)(F)F)c1
- AC50 (INS1): 6.6 µM (active)
- IC50 (Protein Wnt-3a): 5.24 µM (active)
